ChEMBL document CHEMBL4411307, “N,N'-diaryl-bishydrazones in a biphenyl platform: Broad spectrum antifungal agents” (Eur J Med Chem, 2019)
In brackets after ≈: the same amount, converted by molar mass. Activity calls are given as the source filed them. No cut-off for these calls is given here.

Legend:
[1] = tested on: Candida albicans; test: Antifungal activity against fluconazole/ITC-resistant Candida albicans ATCC MYA-1003 measured after 48 hrs by CLSI M27-A3 protocol based method; type: functional; conditions: ATCC MYA-1003, 48 h
[2] = Selectivity index, ratio of compound concentration showing <20 to <25% hemolysis in mouse RBC to MIC for Aspergillus flavus ATCC MYA-3631; type: toxicity; conditions: red blood cells (erythrocytes), read-out: Selectivity Index
[3] = Selectivity index, ratio of compound concentration showing <20 to <25% hemolysis in mouse RBC to MIC for Candida glabrata ATCC 2001; type: toxicity; conditions: red blood cells (erythrocytes), read-out: Selectivity Index
[4] = Selectivity index, ratio of CC50 for human A549 cells to MIC for fluconazole/ITC-resistant Candida albicans ATCC 10231; type: toxicity; conditions: read-out: Selectivity Index
[5] = Selectivity index, ratio of CC50 for human A549 cells to MIC for fluconazole/ITC-susceptible Candida albicans ATCC MYA-2876; type: toxicity; conditions: read-out: Selectivity Index
[6] = Selectivity index, ratio of CC50 for human A549 cells to MIC for Candida parapsilosis ATCC 22019; type: toxicity; conditions: read-out: Selectivity Index
[7] = Selectivity index, ratio of CC50 for human A549 cells to MIC for fluconazole/ITC-resistant Candida albicans ATCC 90819; type: toxicity; conditions: read-out: Selectivity Index
[8] = tested on: Candida albicans; test: Antifungal activity against fluconazole/ITC-susceptible Candida albicans ATCC MYA-2310 measured after 48 hrs by CLSI M27-A3 protocol based method; type: functional; conditions: ATCC MYA-2310, 48 h
[9] = Hemolytic activity in mouse RBC at […] after 1 hr relative to control; type: ADME, cell-based, Erythrocyte; conditions: red blood cells (erythrocytes), read-out: Activity; note: tested at 0.48 µg/mL
[10] = Selectivity index, ratio of compound concentration showing <20 to <25% hemolysis in mouse RBC to MIC for Aspergillus nidulans ATCC 38163; type: toxicity; conditions: red blood cells (erythrocytes), read-out: Selectivity Index
[11] = Hemolytic activity in mouse RBC at 3.9 ug/ml after 1 hr relative to control; type: ADME, cell-based, Erythrocyte; conditions: red blood cells (erythrocytes), read-out: Activity
[12] = tested on: A549; test: Cytotoxicity against human A549 cells after 24 hrs by resazurin based assay; type: cell-based; conditions: a549, 24 h
[13] = tested on: Pichia kudriavzevii; test: Antifungal activity against Candida krusei ATCC 6258 measured after 48 hrs by CLSI M27-A3 protocol based method; type: functional; conditions: ATCC 6258, 48 h
[14] = Selectivity index, ratio of compound concentration showing <20 to <25% hemolysis in mouse RBC to MIC for fluconazole/ITC-susceptible Candida albicans ATCC MYA-2876; type: toxicity; conditions: red blood cells (erythrocytes), read-out: Selectivity Index
[15] = tested on: Candida parapsilosis; test: Antifungal activity against Candida parapsilosis ATCC 22019 measured after 48 hrs by CLSI M27-A3 protocol based method; type: functional; conditions: Lodderomyces parapsilosis, ATCC 22019, 48 h
[16] = tested on: Listeria monocytogenes; test: Antibacterial activity against Listeria monocytogenes; type: functional, organism-based
[17] = Selectivity index, ratio of CC50 for human A549 cells to MIC for fluconazole/ITC-susceptible Candida albicans ATCC MYA-2310; type: toxicity; conditions: read-out: Selectivity Index
[18] = tested on: Candida albicans; test: Antifungal activity against fluconazole/ITC-resistant Candida albicans ATCC 64124 measured after 48 hrs by CLSI M27-A3 protocol based method; type: functional; conditions: ATCC 64124, 48 h
[19] = Selectivity index, ratio of compound concentration showing <20 to <25% hemolysis in mouse RBC to MIC for fluconazole/ITC-resistant Candida albicans ATCC 90819; type: toxicity; conditions: red blood cells (erythrocytes), read-out: Selectivity Index
[20] = tested on: Nakaseomyces glabratus; test: Antifungal activity against Candida glabrata ATCC 2001 measured after 48 hrs by CLSI M27-A3 protocol based method; type: functional; conditions: CBS 138, 48 h
[21] = tested on: Candida albicans; test: Antifungal activity against fluconazole/ITC-susceptible Candida albicans ATCC MYA-2876 measured after 48 hrs by CLSI M27-A3 protocol based method; type: functional; conditions: ATCC MYA-2876, 48 h
[22] = Selectivity index, ratio of compound concentration showing <20 to <25% hemolysis in mouse RBC to MIC for fluconazole/ITC-resistant Candida albicans ATCC MYA-1003; type: toxicity; conditions: red blood cells (erythrocytes), read-out: Selectivity Index
[23] = Selectivity index, ratio of CC50 for human A549 cells to MIC for Candida glabrata ATCC 2001; type: toxicity; conditions: read-out: Selectivity Index
[24] = tested on: Aspergillus terreus; test: Antifungal activity against Aspergillus terreus ATCC MYA-3633 measured after 48 hrs by CLSI M38-A2 protocol based method; type: functional; conditions: ATCC MYA-3633, 48 h
[25] = Selectivity index, ratio of compound concentration showing <20 to <25% hemolysis in mouse RBC to MIC for fluconazole/ITC-resistant Candida albicans ATCC 64124; type: toxicity; conditions: red blood cells (erythrocytes), read-out: Selectivity Index
[26] = Selectivity index, ratio of compound concentration showing <20 to <25% hemolysis in mouse RBC to MIC for Candida krusei ATCC 6258; type: toxicity; conditions: red blood cells (erythrocytes), read-out: Selectivity Index
[27] = Selectivity index, ratio of CC50 for human A549 cells to MIC for Aspergillus terreus ATCC MYA-3633; type: toxicity; conditions: read-out: Selectivity Index
[28] = tested on: Candida albicans; test: Antifungal activity against fluconazole/ITC-resistant Candida albicans ATCC 10231 measured after 48 hrs by CLSI M27-A3 protocol based method; type: functional; conditions: ATCC 10231, 48 h
[29] = Selectivity index, ratio of compound concentration showing <20 to <25% hemolysis in mouse RBC to MIC for Aspergillus terreus ATCC MYA-3633; type: toxicity; conditions: red blood cells (erythrocytes), read-out: Selectivity Index
[30] = tested on: Aspergillus nidulans; test: Antifungal activity against Aspergillus nidulans ATCC 38163 measured after 48 hrs by CLSI M38-A2 protocol based method; type: functional; conditions: ATCC 38163, 48 h
[31] = tested on: Aspergillus flavus; test: Antifungal activity against Aspergillus flavus ATCC MYA-3631 measured after 48 hrs by CLSI M38-A2 protocol based method; type: functional; conditions: ATCC MYA-3631, 48 h
[32] = Selectivity index, ratio of CC50 for human A549 cells to MIC for Aspergillus flavus ATCC MYA-3631; type: toxicity; conditions: read-out: Selectivity Index
[33] = Selectivity index, ratio of compound concentration showing <20 to <25% hemolysis in mouse RBC to MIC for fluconazole/ITC-resistant Candida albicans ATCC 10231; type: toxicity; conditions: red blood cells (erythrocytes), read-out: Selectivity Index
[34] = Selectivity index, ratio of CC50 for human A549 cells to MIC for fluconazole/ITC-resistant Candida albicans ATCC 64124; type: toxicity; conditions: read-out: Selectivity Index
[35] = tested on: Candida albicans; test: Antifungal activity against fluconazole/ITC-resistant Candida albicans ATCC 90819 measured after 48 hrs by CLSI M27-A3 protocol based method; type: functional; conditions: ATCC 90819, 48 h
[36] = Hemolytic activity in mouse RBC at 1.95 ug/ml after 1 hr relative to control; type: ADME, cell-based, Erythrocyte; conditions: red blood cells (erythrocytes), read-out: Activity
[37] = Hemolytic activity in mouse RBC at 62.5 ug/ml after 1 hr relative to control; type: ADME, cell-based, Erythrocyte; conditions: red blood cells (erythrocytes), read-out: Activity
[38] = Hemolytic activity in mouse RBC at 7.8 ug/ml after 1 hr relative to control; type: ADME, cell-based, Erythrocyte; conditions: red blood cells (erythrocytes), read-out: Activity
[39] = Selectivity index, ratio of CC50 for human A549 cells to MIC for Aspergillus nidulans ATCC 38163; type: toxicity; conditions: read-out: Selectivity Index
[40] = Hemolytic activity in mouse RBC at 31.3 ug/ml after 1 hr relative to control; type: ADME, cell-based, Erythrocyte; conditions: red blood cells (erythrocytes), read-out: Activity
[41] = Selectivity index, ratio of CC50 for human A549 cells to MIC for Candida krusei ATCC 6258; type: toxicity; conditions: read-out: Selectivity Index
[42] = tested on: Candida albicans; test: Antifungal activity against fluconazole/ITC-resistant Candida albicans ATCC MYA-1237 measured after 48 hrs by CLSI M27-A3 protocol based method; type: functional; conditions: ATCC MYA-1237, 48 h
[43] = Selectivity index, ratio of compound concentration showing <20 to <25% hemolysis in mouse RBC to MIC for fluconazole/ITC-resistant Candida albicans ATCC MYA-1237; type: toxicity; conditions: red blood cells (erythrocytes), read-out: Selectivity Index
[44] = Selectivity index, ratio of compound concentration showing <20 to <25% hemolysis in mouse RBC to MIC for Candida parapsilosis ATCC 22019; type: toxicity; conditions: red blood cells (erythrocytes), read-out: Selectivity Index
[45] = tested on: BEAS-2B; test: Cytotoxicity against human BEAS2B cells after 24 hrs by resazurin based assay; type: cell-based
[46] = Selectivity index, ratio of CC50 for human A549 cells to MIC for fluconazole/ITC-resistant Candida albicans ATCC MYA-1003; type: toxicity; conditions: read-out: Selectivity Index
[47] = Selectivity index, ratio of compound concentration showing <20 to <25% hemolysis in mouse RBC to MIC for fluconazole/ITC-susceptible Candida albicans ATCC MYA-2310; type: toxicity; conditions: red blood cells (erythrocytes), read-out: Selectivity Index
[48] = tested on: Staphylococcus aureus; test: Antibacterial activity against methicillin-resistant Staphylococcus aureus; type: functional, organism-based
[49] = Selectivity index, ratio of CC50 for human A549 cells to MIC for fluconazole/ITC-resistant Candida albicans ATCC MYA-1237; type: toxicity; conditions: read-out: Selectivity Index
[50] = tested on: Enterococcus; test: Antibacterial activity against vancomycin-resistant Enterococcus; type: functional, organism-based
[51] = Hemolytic activity in mouse RBC at […] ug/ml after 1 hr relative to control; type: ADME, cell-based, Erythrocyte; conditions: red blood cells (erythrocytes), read-out: Activity

C(=N\Nc1ccccc1)/c1ccc(-c2ccc(/C=N/Nc3ccccc3)cc2)cc1 showed an MIC [1] of over 31.3 µg/mL, a selectivity ratio [2] of 1 to 32 and a selectivity ratio [3] of 1 to 32. For the same compound, the selectivity ratio [4] was 2.3, the selectivity ratio [5] was 0.6 and the selectivity ratio [6] was 0.6. For the same compound, the selectivity ratio [7] was 0.6, the MIC [8] was over 31.3 µg/mL and the hemolysis at 1 h, […] [9] was 2%. It also gave a selectivity ratio [10] of 1 to 32, a hemolysis at 1 h, 3.9 ug/ml [11] of 3.4% and a CC50 [12] of 17.7 µg/mL (≈ 45.3 µM). For the same compound, the MIC [13] was over 31.3 µg/mL, the selectivity ratio [14] was 1 to 32 and the MIC [15] was over 31.3 µg/mL. For the same compound, the Activity [16] was “inactive”, the selectivity ratio [17] was 0.6 and the MIC [18] was over 31.3 µg/mL. For the same compound, the selectivity ratio [19] was 1 to 32, the MIC [20] was over 31.3 µg/mL and the MIC [21] was over 31.3 µg/mL. For the same compound, the selectivity ratio [22] was 1 to 32, the selectivity ratio [23] was 0.6 and the MIC [24] was 15.6 µg/mL (≈ 39.9 µM). The selectivity ratio [25] was 1 to 32, the selectivity ratio [26] was 1 to 32 and the selectivity ratio [27] was 1.1. For the same compound, the MIC [28] was 7.8 µg/mL (≈ 20 µM), the selectivity ratio [29] was 1 to 32 and the MIC [30] was 1.95 µg/mL (≈ 4.99 µM). It also gave an MIC [31] of 3.9 µg/mL (≈ 9.99 µM), a selectivity ratio [32] of 4.5 and a selectivity ratio [33] of 1 to 32. For the same compound, the selectivity ratio [34] was 0.6, the MIC [35] was 31.3 µg/mL (≈ 80.2 µM) and the hemolysis at 1 h, 1.95 ug/ml [36] was 3.7%. It also gave a hemolysis at 1 h, 62.5 ug/ml [37] of 17.2%, a hemolysis at 1 h, 7.8 ug/ml [38] of 2.9% and a selectivity ratio [39] of 9.1. For the same compound, the hemolysis at 1 h, 31.3 ug/ml [40] was 10.8%, the selectivity ratio [41] was 0.6 and the MIC [42] was over 31.3 µg/mL. The selectivity ratio [43] was 1 to 32, the selectivity ratio [44] was 1 to 32 and the CC50 [45] was 11 µg/mL (≈ 28.2 µM). The selectivity ratio [46] was 0.6, the selectivity ratio [47] was 1 to 32 and the Activity [48] was “inactive”. For the same compound, the selectivity ratio [49] was 0.6, the Activity [50] was “inactive” and the hemolysis at 1 h, 15.6 ug/ml ([51]; at 15.6 µg/mL) was 14.1%. It also gave a hemolysis at 1 h, 0.975 ug/ml [51] of 0.1%.
